Data reported in US6368812B1 (priority 1996, dated 2002).
pKi: −log10 of the molar value.

Tests used:
[1] = target: T1, rat GALR1 galanin receptor (rat, UniProt Q62805 1-346); assay: cell-based or functional assay
T1 sequence: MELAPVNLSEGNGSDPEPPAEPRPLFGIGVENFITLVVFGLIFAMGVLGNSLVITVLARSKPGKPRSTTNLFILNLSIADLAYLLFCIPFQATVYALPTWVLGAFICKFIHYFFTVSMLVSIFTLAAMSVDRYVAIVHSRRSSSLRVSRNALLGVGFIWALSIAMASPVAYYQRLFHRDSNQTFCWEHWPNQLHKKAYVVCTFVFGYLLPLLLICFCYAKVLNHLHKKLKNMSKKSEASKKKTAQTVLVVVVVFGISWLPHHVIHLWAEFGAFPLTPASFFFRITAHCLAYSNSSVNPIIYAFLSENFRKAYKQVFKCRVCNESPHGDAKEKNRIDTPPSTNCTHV

[2] = target: T2, human GALR3 (Homo sapiens, UniProt O60755); assay: porcine 125I-galanin binding, LM(tk-) cells stably expressing human GALR3 (L-hGalR3-228); details: Ki (nM) Hum GALR3 LMTK− #8, Table 10
T2 construct: The full-length human GALR3 gene contains 1107 bp within its coding region, encoding for a predicted protein of 368 aa; expressed in transfected cells
T2 sequence (O60755 1-368): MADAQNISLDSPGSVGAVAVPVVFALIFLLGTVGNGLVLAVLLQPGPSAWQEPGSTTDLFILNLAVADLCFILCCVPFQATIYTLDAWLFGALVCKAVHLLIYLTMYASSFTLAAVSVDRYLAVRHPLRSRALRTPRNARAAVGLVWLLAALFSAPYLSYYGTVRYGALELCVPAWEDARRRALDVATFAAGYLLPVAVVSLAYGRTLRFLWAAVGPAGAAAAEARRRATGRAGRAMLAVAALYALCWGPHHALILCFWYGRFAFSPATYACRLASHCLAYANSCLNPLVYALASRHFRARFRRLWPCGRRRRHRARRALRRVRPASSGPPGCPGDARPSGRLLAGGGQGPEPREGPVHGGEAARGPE

[3] = target: T3, Hum GALR1 (Homo sapiens, UniProt P47211); assay: porcine 125I-galanin binding assay, Hum GALR1 LM(tk-); details: Table 10
T3 sequence (P47211 1-349): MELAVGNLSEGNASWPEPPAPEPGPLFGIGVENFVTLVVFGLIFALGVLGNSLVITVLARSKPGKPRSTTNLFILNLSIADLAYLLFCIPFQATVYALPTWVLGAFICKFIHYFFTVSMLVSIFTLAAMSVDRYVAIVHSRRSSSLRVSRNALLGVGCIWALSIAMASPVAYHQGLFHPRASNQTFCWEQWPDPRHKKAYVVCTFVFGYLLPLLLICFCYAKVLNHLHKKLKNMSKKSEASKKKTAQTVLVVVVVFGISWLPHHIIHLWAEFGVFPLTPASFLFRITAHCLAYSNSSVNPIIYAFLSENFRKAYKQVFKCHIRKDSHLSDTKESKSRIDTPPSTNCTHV

[4] = target: T4, rat GALR2 (Rattus norvegicus, UniProt O08726); assay: porcine 125I-galanin binding assay, Rat GALR2 LMTK #4
T4 construct: expressed in transfected cells
T4 sequence (O08726 1-372): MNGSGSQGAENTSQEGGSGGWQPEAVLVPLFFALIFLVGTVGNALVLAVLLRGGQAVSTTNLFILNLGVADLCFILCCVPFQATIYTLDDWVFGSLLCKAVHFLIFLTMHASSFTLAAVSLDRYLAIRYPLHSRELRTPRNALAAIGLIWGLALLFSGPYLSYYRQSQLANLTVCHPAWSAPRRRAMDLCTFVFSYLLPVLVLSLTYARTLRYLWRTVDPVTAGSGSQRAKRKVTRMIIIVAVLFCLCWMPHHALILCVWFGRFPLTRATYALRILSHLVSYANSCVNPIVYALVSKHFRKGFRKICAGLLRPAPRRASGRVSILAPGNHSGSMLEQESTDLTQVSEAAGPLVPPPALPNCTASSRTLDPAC

[5] = target: T5, Hum GALR2 (Homo sapiens, UniProt O43603); assay: porcine 125I-galanin binding assay, Hum GALR2 CHO
T5 construct: expressed in transfected cells; host or cells: CHO
T5 sequence (O43603 1-387): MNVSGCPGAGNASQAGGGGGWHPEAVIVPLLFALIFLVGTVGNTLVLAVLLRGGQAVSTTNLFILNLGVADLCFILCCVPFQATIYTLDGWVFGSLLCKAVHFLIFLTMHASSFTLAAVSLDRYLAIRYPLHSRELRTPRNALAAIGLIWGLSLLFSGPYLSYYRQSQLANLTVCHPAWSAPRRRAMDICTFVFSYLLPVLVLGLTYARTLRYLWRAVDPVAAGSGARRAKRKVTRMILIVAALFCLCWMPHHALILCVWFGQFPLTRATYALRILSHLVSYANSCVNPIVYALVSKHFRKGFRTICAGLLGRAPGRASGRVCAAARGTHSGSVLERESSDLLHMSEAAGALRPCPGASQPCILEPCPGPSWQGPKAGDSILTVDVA

[6] = target: T6, rat GALR3 (Rattus norvegicus, UniProt O88626); assay: porcine 125I-galanin binding, membranes of stable cell line 293-rGalR3-105; design: which comprises the entire coding region of rat GALR3; expressed in transfected cells; details: Ki (nM) Rat GALR3 293 #105, Table 9
T6 sequence (O88626 1-370): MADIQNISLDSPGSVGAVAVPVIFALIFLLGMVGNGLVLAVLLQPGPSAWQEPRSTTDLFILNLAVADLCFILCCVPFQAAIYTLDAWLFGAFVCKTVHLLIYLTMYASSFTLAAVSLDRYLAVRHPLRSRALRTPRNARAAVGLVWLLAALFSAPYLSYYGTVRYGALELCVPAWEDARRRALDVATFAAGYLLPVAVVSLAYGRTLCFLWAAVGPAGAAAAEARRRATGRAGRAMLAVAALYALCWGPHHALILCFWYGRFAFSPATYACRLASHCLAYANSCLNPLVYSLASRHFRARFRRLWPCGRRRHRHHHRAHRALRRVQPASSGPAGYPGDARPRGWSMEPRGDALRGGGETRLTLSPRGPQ

[7] = target: T7, rat GALR1 (Rattus norvegicus, UniProt Q62805); assay: biochemical; type: binding; details: Table 9; read-out: Ki (nM) Rat GalR1 CHO
T7 construct: expressed in transfected cells; host or cells: CHO
T7 sequence (Q62805 1-346): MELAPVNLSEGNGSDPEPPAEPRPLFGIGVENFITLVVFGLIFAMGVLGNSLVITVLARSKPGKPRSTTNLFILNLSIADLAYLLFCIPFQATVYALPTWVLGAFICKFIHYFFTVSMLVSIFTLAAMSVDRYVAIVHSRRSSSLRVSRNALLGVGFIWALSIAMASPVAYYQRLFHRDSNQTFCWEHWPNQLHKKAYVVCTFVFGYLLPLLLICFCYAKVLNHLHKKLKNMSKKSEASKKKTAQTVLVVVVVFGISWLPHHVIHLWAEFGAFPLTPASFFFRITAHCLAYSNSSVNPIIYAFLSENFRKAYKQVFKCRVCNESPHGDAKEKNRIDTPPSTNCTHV

Molecule | EC50, cAMP, LM(tk-) cells [1] [nM] | Ki [2] [nM] | Ki [3] [nM] | pKi [4] | pKi [5] | Ki [6] [nM] | Ki [7] [nM]
C7 (peptide) | 0.52 | – | – | – | – | – | –
CC[C@H](C)[C@H](NC(=O)[C@H](C)NC(=O)[C@H](Cc1c[nH]cn1)NC(=O)[C@@H]1CCCN1C(=O)CNC(=O)[C@H](CC(C)C)NC(=O)[C@H](CC(C)C)NC(=O)[C@H](Cc1ccc(O)cc1)NC(=O)CNC(=O)[C@H](C)NC(=O)[C@H](CO)NC(=O)[C@H](CC(N)=O)NC(=O)[C@H](CC(C)C)NC(=O)[C@@H](NC(=O)[C@H](Cc1c[nH]c2ccccc12)NC(=O)CNC(=O)[C@H](CCCNC(=N)N)NC(=O)[C@H](CCCCN)NC(=O)[C@H](CCC(=O)O)NC(=O)[C@H](CCCCN)NC(=O)[C@@H](NC(=O)[C@@H]1CCCN1C(=O)[C@H](CO)NC(=O)CNC(=O)[C@@H](N)CC(C)C)C(C)C)[C@@H](C)O)C(=O)N[C@@H](CC(=O)O)C(=O)N[C@@H](CC(N)=O)C(=O)N[C@@H](Cc1c[nH]cn1)C(=O)N[C@@H](CCCNC(=N)N)C(=O)N[C@@H](CO)C(=O)N[C@@H](Cc1ccccc1)C(=O)N[C@@H](Cc1c[nH]cn1)C(=O)N[C@@H](CC(=O)O)C(=O)N[C@@H](CCCCN)C(=O)N[C@@H](Cc1ccc(O)cc1)C(=O)NCC(=O)N[C@@H](CC(C)C)C(=O)N[C@@H](C)C(N)=O [(−)9 to (+)29 galanin, porcine] | – | 50.1 | 7.85 | 8.46 | 8.27 | 4.17 | 51.3
CC[C@H](C)[C@H](NC(=O)[C@H](C)NC(=O)[C@H](Cc1c[nH]cn1)NC(=O)[C@@H]1CCCN1C(=O)CNC(=O)[C@H](CC(C)C)NC(=O)[C@H](CC(C)C)NC(=O)[C@H](Cc1ccc(O)c(I)c1)NC(=O)CNC(=O)[C@H](C)NC(=O)[C@H](CO)NC(=O)[C@H](CC(N)=O)NC(=O)[C@H](CC(C)C)NC(=O)[C@@H](NC(=O)[C@@H](Cc1c[nH]c2ccccc12)NC(=O)CN)[C@@H](C)O)C(=O)N[C@@H](CC(=O)O)C(=O)N[C@@H](CC(N)=O)C(=O)N[C@@H](Cc1c[nH]cn1)C(=O)N[C@@H](CCCNC(=N)N)C(=O)N[C@@H](CO)C(=O)N[C@@H](Cc1ccccc1)C(=O)N[C@@H](Cc1c[nH]cn1)C(=O)N[C@@H](CC(=O)O)C(=O)N[C@@H](CCCCN)C(=O)N[C@@H](Cc1ccc(O)c(I)c1)C(=O)NCC(=O)N[C@@H](CC(C)C)C(=O)N[C@@H](C)C(N)=O [D-Trp2-(d-iodo-L-Tyr9)-(3-iodo-L-Tyr26)-galanin] | – | 933 | – | – | – | 182 | –
